Results from ChEMBL document CHEMBL1201862, “PubChem BioAssay data set” (2004).
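Test compounds were applied to cells in 96-well plates for 48 hours at 5 doses. The concentration for 50% growth inhibition is given as GI50.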 Active and inactive are the calls of the source. No stated cut-off is given here; in the data, active = GI50 up to about 1.1 µM and inactive = higher. Non-standard residues stand in square brackets, D forms with d. Residues, ends and D or L forms follow the SMILES beside them. ξ: configuration not given here. *: point of attachment. NMeY = CN[C@@H](Cc1ccc(O)cc1)C(=O)O; Cbz = O=C(OCc1ccccc1)*; ξA = CC(N)C(=O)O

Assays:
Experiment in all cases: DTP human tumour cell line panel, 48 h
[1] = test system: NCI/ADR-RES
[2] = test system: OVCAR-8
[3] = test system: A549
[4] = test system: M14
[5] = test system: OVCAR-5
[6] = test system: NCI-H23
[7] = test system: UACC-62
[8] = test system: SK-MEL-28
[9] = test system: NCI-H226
[10] = test system: OVCAR-4
[11] = test system: ACHN
[12] = test system: SF-268
[13] = test system: TK-10
[14] = test system: CAKI-1
[15] = test system: HT-29
[16] = test system: T47D
[17] = test system: SK-MEL-5
[18] = test system: A498
[19] = test system: HCC 2998
[20] = test system: HOP-62

`COc1ccc(CNc2cc(=O)n(C)c(=O)[nH]2)cc1` was tested, and the GI50 [1] was > 100 µM (inactive), the GI50 [2] was > 100 µM (inactive) and the GI50 [3] was > 100 µM (inactive). For the same compound, the GI50 [4] was > 100 µM (inactive), the GI50 [5] was > 100 µM (inactive) and the GI50 [6] was > 100 µM (inactive). The GI50 [7] was > 100 µM (inactive), the GI50 [8] was > 100 µM (inactive) and the GI50 [9] was > 100 µM (inactive). For the same compound, the GI50 [10] was > 100 µM (inactive), the GI50 [11] was > 100 µM (inactive) and the GI50 [12] was > 100 µM (inactive). The GI50 [13] was > 100 µM (inactive), the GI50 [14] was > 100 µM (inactive) and the GI50 [15] was > 100 µM (inactive). For the same compound, the GI50 [16] was > 100 µM (inactive), the GI50 [17] was > 100 µM (inactive) and the GI50 [18] was > 100 µM (inactive). The GI50 [19] was > 100 µM (inactive) and the GI50 [20] was > 100 µM (inactive).

For `CCCCCCCCCCCCCCCCCCNc1ccn(C2OC(CO)C(OP(=O)(O)OCC(COP(=O)(O)OCC3OC(n4cc(F)c(NCCCCCCCCCCCCCCCCCC)nc4=O)CC3O)OC(=O)CCCCCCCCCCCCCCC)C2O)c(=O)n1` (stereo not given), the GI50 [1] was > 100 µM (inactive), the GI50 [2] was > 100 µM (inactive) and the GI50 [3] was > 100 µM (inactive). For the same compound, the GI50 [4] was > 100 µM (inactive), the GI50 [5] was > 100 µM (inactive) and the GI50 [6] was > 100 µM (inactive). For the same compound, the GI50 [7] was > 100 µM (inactive), the GI50 [8] was > 100 µM (inactive) and the GI50 [9] was > 100 µM (inactive). The GI50 [10] was > 100 µM (inactive), the GI50 [11] was > 100 µM (inactive) and the GI50 [12] was > 100 µM (inactive). The GI50 [13] was > 100 µM (inactive), the GI50 [14] was > 100 µM (inactive) and the GI50 [15] was > 100 µM (inactive). For the same compound, the GI50 [16] was > 100 µM (inactive), the GI50 [17] was > 100 µM (inactive) and the GI50 [18] was > 100 µM (inactive). For the same compound, the GI50 [19] was > 100 µM (inactive) and the GI50 [20] was > 100 µM (inactive).

In the case of `O=[N+]([O-])c1ccc(Oc2c(Cl)cc(S(=O)(=O)N/C(=N\O)Nc3ccc(Cl)cc3)cc2Cl)cc1`, the GI50 [1] is reported as 12.6 µM (inactive), the GI50 [2] is reported as 12.6 µM (inactive) and the GI50 [3] is reported as 13.6 µM (inactive). For the same compound, the GI50 [4] was 12.6 µM (inactive), the GI50 [5] was 7.66 µM (inactive) and the GI50 [6] was 9.98 µM (inactive). For the same compound, the GI50 [7] was 11.5 µM (inactive), the GI50 [8] was 13.9 µM (inactive) and the GI50 [9] was 14 µM (inactive). For the same compound, the GI50 [10] was 3.94 µM (inactive), the GI50 [11] was 11.6 µM (inactive) and the GI50 [12] was 12.5 µM (inactive). The GI50 [13] was 11.2 µM (inactive), the GI50 [14] was 5.57 µM (inactive) and the GI50 [15] was 14.4 µM (inactive). For the same compound, the GI50 [16] was 7.98 µM (inactive), the GI50 [17] was 9.44 µM (inactive) and the GI50 [18] was 10.4 µM (inactive). The GI50 [19] was 4.1 µM (inactive) and the GI50 [20] was 15.2 µM (inactive).

In the case of `N#Cc1c(-c2ccc(Cl)cc2)cc(-c2ccc(Nc3ccnc4cc(C(F)(F)F)ccc34)cc2)nc1N`, the GI50 [1] is reported as > 100 µM (inactive), the GI50 [2] is reported as > 100 µM (inactive) and the GI50 [3] is reported as 83.4 µM (inactive). For the same compound, the GI50 [4] was 19.5 µM (inactive), the GI50 [5] was 30.2 µM (inactive) and the GI50 [6] was 57.5 µM (inactive). For the same compound, the GI50 [7] was 22.3 µM (inactive), the GI50 [8] was 22.1 µM (inactive) and the GI50 [9] was 24.7 µM (inactive). The GI50 [10] was 17.9 µM (inactive), the GI50 [11] was 17.4 µM (inactive) and the GI50 [12] was 39.1 µM (inactive). For the same compound, the GI50 [13] was 31.2 µM (inactive), the GI50 [14] was 57.7 µM (inactive) and the GI50 [15] was 16.6 µM (inactive). For the same compound, the GI50 [16] was 18.5 µM (inactive), the GI50 [17] was 25.3 µM (inactive) and the GI50 [18] was 19.6 µM (inactive). The GI50 [19] was 64.3 µM (inactive) and the GI50 [20] was 19.7 µM (inactive).

With `COc1ccc(C[C@@H](C(=O)NCC(N)=O)N(C)C(=O)[C@@H]2CCCN2C(=O)[C@H](CC(C)C)NC(=O)C(C)NC(=O)OCc2ccccc2)cc1` (stereo not given in full) (Cbz-[ξA]LP[NMeY](Me)G-NH2) the GI50 [1] was > 100 µM (inactive), the GI50 [2] was > 100 µM (inactive) and the GI50 [3] was > 100 µM (inactive). The GI50 [4] was > 100 µM (inactive), the GI50 [5] was > 100 µM (inactive) and the GI50 [6] was > 100 µM (inactive). The GI50 [7] was > 100 µM (inactive), the GI50 [8] was > 100 µM (inactive) and the GI50 [9] was > 100 µM (inactive). For the same compound, the GI50 [10] was > 100 µM (inactive), the GI50 [11] was > 100 µM (inactive) and the GI50 [12] was > 100 µM (inactive). The GI50 [13] was > 100 µM (inactive), the GI50 [14] was > 100 µM (inactive) and the GI50 [15] was > 100 µM (inactive). For the same compound, the GI50 [16] was > 100 µM (inactive), the GI50 [17] was > 100 µM (inactive) and the GI50 [18] was > 100 µM (inactive). The GI50 [19] was > 100 µM (inactive) and the GI50 [20] was > 100 µM (inactive).

`COc1ccc(C2SCC(=O)N2NC(=O)C(C)Oc2ccc(Cl)cc2Cl)cc1` (stereo not given) was tested, and the GI50 [1] was 56.6 µM (inactive), the GI50 [2] was 31.3 µM (inactive) and the GI50 [3] was 31.6 µM (inactive). The GI50 [4] was 51.2 µM (inactive), the GI50 [5] was > 100 µM (inactive) and the GI50 [6] was 64.9 µM (inactive). The GI50 [7] was 33.9 µM (inactive), the GI50 [8] was 30.9 µM (inactive) and the GI50 [9] was 16.4 µM (inactive). For the same compound, the GI50 [10] was 23.6 µM (inactive), the GI50 [11] was 72.3 µM (inactive) and the GI50 [12] was > 100 µM (inactive). The GI50 [13] was 42.6 µM (inactive), the GI50 [14] was 21.8 µM (inactive) and the GI50 [15] was > 100 µM (inactive). The GI50 [16] was 28.4 µM (inactive), the GI50 [17] was 46.5 µM (inactive) and the GI50 [18] was 25 µM (inactive). For the same compound, the GI50 [19] was 55.6 µM (inactive) and the GI50 [20] was 20.6 µM (inactive).

With `CC(C)(C)OC(=O)N1CC(CCl)c2ccc(O)cc21` (stereo not given) the GI50 [1] was 1.59 µM (inactive), the GI50 [2] was 3.59 µM (inactive) and the GI50 [3] was 3.12 µM (inactive). The GI50 [4] was 1.72 µM (inactive), the GI50 [5] was 3.27 µM (inactive) and the GI50 [6] was 1.04 µM (active). The GI50 [7] was 2.01 µM (inactive), the GI50 [8] was 2.09 µM (inactive) and the GI50 [9] was 2.06 µM (inactive). The GI50 [10] was 0.267 µM (active), the GI50 [11] was 1.11 µM (active) and the GI50 [12] was 1.58 µM (inactive). The GI50 [13] was 2.4 µM (inactive), the GI50 [14] was 2.97 µM (inactive) and the GI50 [15] was 3.15 µM (inactive). For the same compound, the GI50 [16] was 3.03 µM (inactive), the GI50 [17] was 1.35 µM (inactive) and the GI50 [18] was 2.06 µM (inactive). The GI50 [19] was 0.0223 µM (active) and the GI50 [20] was 3.29 µM (inactive).

For `CC(=O)O[C@H]1CC[C@@]2(C)C(=CC[C@@H]3[C@@H]2CC[C@]2(C)c4c(C)nn(-c5ccccc5)c4C[C@@H]32)C1`, the GI50 [1] was 34.9 µM (inactive), the GI50 [2] was 40.7 µM (inactive) and the GI50 [3] was 35.9 µM (inactive). The GI50 [4] was 53.8 µM (inactive), the GI50 [5] was 22.2 µM (inactive) and the GI50 [6] was 13.2 µM (inactive). For the same compound, the GI50 [7] was 18.5 µM (inactive), the GI50 [8] was 25.5 µM (inactive) and the GI50 [9] was 36.6 µM (inactive). For the same compound, the GI50 [10] was 72.6 µM (inactive), the GI50 [11] was 19.5 µM (inactive) and the GI50 [12] was 62.8 µM (inactive). The GI50 [13] was 22.8 µM (inactive), the GI50 [14] was 20.9 µM (inactive) and the GI50 [15] was 11.5 µM (inactive). The GI50 [16] was 33 µM (inactive), the GI50 [17] was 37.2 µM (inactive) and the GI50 [18] was 24 µM (inactive). For the same compound, the GI50 [19] was 16.4 µM (inactive) and the GI50 [20] was 15.5 µM (inactive).

With `COc1ccc(NC(/C(C(=O)c2ccccc2)=C(\O)C(=O)/C=C(\O)c2ccccc2)c2ccc(OC)cc2)cc1` (stereo not given) the GI50 [1] was 40.3 µM (inactive), the GI50 [2] was 59.6 µM (inactive) and the GI50 [3] was 28.6 µM (inactive). The GI50 [4] was 23.2 µM (inactive), the GI50 [5] was > 100 µM (inactive) and the GI50 [6] was 47 µM (inactive). For the same compound, the GI50 [7] was 52.4 µM (inactive), the GI50 [8] was 32.9 µM (inactive) and the GI50 [9] was > 100 µM (inactive). The GI50 [10] was 30.5 µM (inactive), the GI50 [11] was 64.9 µM (inactive) and the GI50 [12] was 43.1 µM (inactive). For the same compound, the GI50 [13] was 30.3 µM (inactive), the GI50 [14] was 33.2 µM (inactive) and the GI50 [15] was 45.8 µM (inactive). For the same compound, the GI50 [16] was 24.5 µM (inactive), the GI50 [17] was 49.3 µM (inactive) and the GI50 [18] was 35.7 µM (inactive). For the same compound, the GI50 [19] was 26.6 µM (inactive) and the GI50 [20] was 52.4 µM (inactive).
